{"source": "patent US20020169193A1", "about": "“Alkylphenyliminoimidazolidine derivatives for treating urinary incontinence” (priority 2001, published 2002)", "key": {"Human Urethra": {"test_system": "Human Urethra", "test": "Efficacy: contraction of human urethra compared with noradrenaline", "conditions": "percentage of contraction compared with noradrenaline", "protocol": "(§1) The efficacy and selectivity of the compounds is determined as follows:\n(§2) Maximum contraction in the dog and activity on human urethra are percentages of contraction compared with noradrenaline. Selectivity in the dog is the percentage contraction of the dog's femoral artery at 10^−5 M—percentage contraction of the carotid artery in the dog at 10^−5 M."}, "the Dog": {"test_system": "the Dog", "test": "Efficacy: maximum contraction in the dog compared with noradrenaline", "conditions": "percentage of contraction compared with noradrenaline", "protocol": "as §1, §2"}, "[1]": {"test_system": "dog's femoral artery / carotid artery in the dog", "test": "Selectivity in the dog: femoral artery versus carotid artery contraction", "conditions": "percentage contraction of femoral artery at 10^−5 M — percentage contraction of carotid artery at 10^−5 M", "protocol": "as §1, §2"}, "CYP2D6": {"biological_target": "CYP2D6 (Homo sapiens, UniProt P10635)", "sequence (P10635 whole entry)": "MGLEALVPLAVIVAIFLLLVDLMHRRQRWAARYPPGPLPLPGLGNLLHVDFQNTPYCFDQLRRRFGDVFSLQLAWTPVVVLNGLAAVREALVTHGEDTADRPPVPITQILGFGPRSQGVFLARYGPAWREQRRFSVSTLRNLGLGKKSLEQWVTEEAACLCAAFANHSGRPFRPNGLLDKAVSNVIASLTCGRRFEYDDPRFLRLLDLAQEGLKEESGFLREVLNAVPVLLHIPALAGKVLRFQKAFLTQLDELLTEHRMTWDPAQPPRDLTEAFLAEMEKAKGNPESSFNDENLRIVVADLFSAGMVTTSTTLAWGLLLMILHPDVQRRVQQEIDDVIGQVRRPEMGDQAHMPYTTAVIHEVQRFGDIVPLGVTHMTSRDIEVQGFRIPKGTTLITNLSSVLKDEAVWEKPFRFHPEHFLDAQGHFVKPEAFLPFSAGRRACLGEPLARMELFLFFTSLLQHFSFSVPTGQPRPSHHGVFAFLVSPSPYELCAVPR", "test": "Metabolism: substrate breakdown by enzyme CYP2D6", "assay_type": "in vitro ADME", "protocol": "To determine the metabolism the enzyme CYP2D6 was allowed to act on the test substances. After 30 minutes, a check was made to see how much of the test substance put in had been degraded by the enzyme."}, "HLM": {"test_system": "HLM", "test": "Metabolism: decomposition under the effect of HLM", "assay_type": "in vitro ADME", "protocol": "The decomposition under the effect of the enzyme HLM/60 minutes was tested analogously."}, "[2]": {"test": "Bioavailability, oral versus intravenous administration in rats, plasma HPLC", "assay_type": "in vivo", "conditions": "male fasted rats, oral vs intravenous, pooled plasma; for bioavailability: rat", "protocol": "To determine the bioavailability, the test substances were administered orally to a group of 8 male fasted rats. As a control, animals in an identical second group were given the test substances intravenously. At specified times after administration (10 minutes, 30 minutes, 1 hour, 2 hours and 4 hours, and additionally 6 hours in the case of the animals in the oral group) 1 mL blood samples were taken from the animals in both groups. The blood samples taken in each group were mixed together (8 mL). The content of the corresponding test substances in the blood for the appropriate time was determined from the plasma after further working up by HPLC (High Performance Liquid Chromatography) using standard methods and correlated for the two groups."}}}
{"smiles": "Cc1c(NC2=NCCN2)cccc1C(C)C", "note": "[Compound 1, 3′-isopropyl-2′-methylphen-1′-yl-2-iminoimidazolidine]", "values": [{"measurement": "Activity on Human Urethra", "setting": "Human Urethra", "value": 11, "unit": "%"}, {"measurement": "Activity in the Dog", "setting": "the Dog", "value": 78, "unit": "%"}, {"measurement": "Selectivity in the Dog", "setting": "[1]", "value": 0.7}, {"measurement": "% Substrate Breakdown After 30 Minutes Incubation with CYP2D6", "setting": "CYP2D6", "value": 18.2, "unit": "%"}, {"measurement": "% Substrate Breakdown After 60 Minutes Incubation with HLM", "setting": "HLM", "value": 13.5, "unit": "%"}]}
{"smiles": "Cc1c(NC2=NCCN2)ccc(Cl)c1C(C)C", "note": "[Compound 4, 4′-chloro-3′-isopropyl-2′-methylphen-1′-yl-2-iminoimidazolidine]", "values": [{"measurement": "Activity in the Dog", "setting": "the Dog", "value": 59, "unit": "%"}, {"measurement": "Selectivity in the Dog", "setting": "[1]", "value": 0.5}, {"measurement": "% Substrate Breakdown After 30 Minutes Incubation with CYP2D6", "setting": "CYP2D6", "value": 7.6, "unit": "%"}, {"measurement": "% Substrate Breakdown After 60 Minutes Incubation with HLM", "setting": "HLM", "value": 5.5, "unit": "%"}]}
{"smiles": "CC(C)(C)c1ccc(Br)c(N=C2NCCN2)c1", "note": "[Compound 6, 6′-bromo-3′-tert-butylphen-1′-yl-2-iminoimidazolidine]", "values": [{"measurement": "Activity in the Dog", "setting": "the Dog", "value": 28, "unit": "%"}, {"measurement": "% Substrate Breakdown After 30 Minutes Incubation with CYP2D6", "setting": "CYP2D6", "value": 3.0, "unit": "%"}, {"measurement": "% Substrate Breakdown After 60 Minutes Incubation with HLM", "setting": "HLM", "value": 2.8, "unit": "%"}]}
{"smiles": "Cc1c(C(C)C)ccc(Cl)c1NC1=NCCN1", "note": "[Compound 3, 6′-chloro-3′-isopropyl-2′-methylphen-1′-yl-2-iminoimidazolidine]", "values": [{"measurement": "Activity on Human Urethra", "setting": "Human Urethra", "value": 41, "unit": "%"}, {"measurement": "Activity in the Dog", "setting": "the Dog", "value": 70, "unit": "%"}, {"measurement": "bioavailability", "setting": "[2]", "value": 8, "unit": "%"}, {"measurement": "Selectivity in the Dog", "setting": "[1]", "value": 0.7}, {"measurement": "% Substrate Breakdown After 30 Minutes Incubation with CYP2D6", "setting": "CYP2D6", "value": 6.1, "unit": "%"}, {"measurement": "% Substrate Breakdown After 60 Minutes Incubation with HLM", "setting": "HLM", "value": 11.7, "unit": "%"}]}
{"smiles": "Cc1c(NC2=NCCN2)ccc(Br)c1C(C)C", "note": "[Compound 7, 4′-bromo-3′-isopropyl-2′-methylphen-1′-yl-2-iminoimidazolidine]", "values": [{"measurement": "Activity on Human Urethra", "setting": "Human Urethra", "value": 21, "unit": "%"}, {"measurement": "Activity in the Dog", "setting": "the Dog", "value": 70, "unit": "%"}, {"measurement": "bioavailability", "setting": "[2]", "value": 53, "unit": "%"}, {"measurement": "Selectivity in the Dog", "setting": "[1]", "value": 0.7}, {"measurement": "% Substrate Breakdown After 30 Minutes Incubation with CYP2D6", "setting": "CYP2D6", "value": 5.0, "unit": "%"}]}
{"smiles": "Cc1c(C(C)C)ccc(Br)c1NC1=NCCN1", "note": "[Compound 5, 6′-bromo-3′-isopropyl-2′-methylphen-1′-yl-2-iminoimidazolidine]", "values": [{"measurement": "Activity in the Dog", "setting": "the Dog", "value": 34, "unit": "%"}, {"measurement": "Selectivity in the Dog", "setting": "[1]", "value": 0.4}, {"measurement": "% Substrate Breakdown After 30 Minutes Incubation with CYP2D6", "setting": "CYP2D6", "value": 8.7, "unit": "%"}, {"measurement": "% Substrate Breakdown After 60 Minutes Incubation with HLM", "setting": "HLM", "value": 7.5, "unit": "%"}]}
{"smiles": "COc1ccc(C(C)(C)C)cc1N=C1NCCN1", "note": "[Compound 2, 3′-tert-butyl-6′-methoxyphen-1′-yl-2-iminoimidazolidine]", "values": [{"measurement": "Activity on Human Urethra", "setting": "Human Urethra", "value": 30, "unit": "%"}, {"measurement": "Activity in the Dog", "setting": "the Dog", "value": 71, "unit": "%"}, {"measurement": "Bioavailability in %", "setting": "[2]", "value": 34, "unit": "%"}, {"measurement": "Selectivity in the Dog", "setting": "[1]", "value": 0.6}, {"measurement": "% Substrate Breakdown After 30 Minutes Incubation with CYP2D6", "setting": "CYP2D6", "value": 0.7, "unit": "%"}, {"measurement": "% Substrate Breakdown After 60 Minutes Incubation with HLM", "setting": "HLM", "value": 2.7, "unit": "%"}]}
